Measurements published in ChEMBL document CHEMBL6153042, “Glycoconjugates of adefovir and tenofovir as asialoglycoprotein-mediated Anti-HBV prodrugs with enhanced liver targeting” (Eur J Med Chem, 2025).

Assays:
[1] = Drug metabolism in plasma of Sprague-Dawley rat assessed as hydrolyzed metabolite formation measured after 5 hrs by HPLC analysis; assay type: ADME, cell-free
[2] = Prodrug release in human HepG2 cells assessed as tenofovir release measured over 1 hrs by HPLC analysis; assay type: ADME, cell-based; conditions: hepg2, 1 h
[3] = Prodrug release in human HepG2 cells assessed as adefovir release measured over 1 hrs by HPLC analysis; assay type: ADME, cell-based; conditions: hepg2, 1 h
[4] = Prodrug release in human HepG2 cells assessed as adefovir release by mass spectrometric analysis; assay type: ADME, cell-based
[5] = Prodrug release in human HepG2 cells assessed as tenofovir release by mass spectrometric analysis; assay type: ADME, cell-based
[6] = Clearance in Sprague-Dawley rat at 50 mg/kg, po by LC-MS analysis; assay type: ADME, organism-based; conditions: in vivo
[7] = Toxicity in Kunming mouse assessed as effect on body weight at 100 to 200 mg/kg, iv administered once daily for 5 days; assay type: organism-based; conditions: in vivo, 120 h, dose 100-200 mg/kg, time 5 day
LX-2 [8] = assay: Cytotoxicity against human LX2 cells at 5 uM incubated for 48 hrs by CCK8 assay; assay type: toxicity, cell-based; conditions: lx-2, 48 h
[9] = Toxicity in Kunming mouse assessed as maximum tolerated dose administered intravenously as once daily dose for 5 days; conditions: in vivo, route iv, time 5 day
[10] = Toxicity in Kunming mouse assessed as effect on liver weight at 100 to 200 mg/kg, iv once daily for 5 days; assay type: organism-based; conditions: in vivo, 120 h, dose 100-200 mg/kg, time 5 day
[11] = Metabolic stability in human liver microsomes assessed as half-life measured upto 60 mins by LC-MS/MS analysis; assay type: ADME, Microsome
[12] = Drug uptake in Sprague-Dawley rat at 50 mg/kg, po or 5 mg/kg, iv measured after 2 to 3 hrs by LC-MS/MS analysis; assay type: ADME, organism-based; conditions: in vivo, time 2-3 hrs
[13] = Selectivity index, the ratio of CC50 for human HepG2.2.15 cells to EC50 for antiviral activity against HBV in human HepG2.2.15 cells assessed as inhibition of HBV DNA replication; assay type: toxicity, cell-based; conditions: read-out: Ratio CC50/EC50
LX-2 [14] = assay: Cytotoxicity against human LX2 cells assessed as cell growth inhibition at 10 uM incubated for 48 hrs by CCK8 assay relative to control; assay type: toxicity, cell-based; conditions: lx-2, 48 h, 10 µM
[15] = AUC (0 to infinity) in Sprague-Dawley rat at 5 mg/kg, iv by LC-MS analysis; assay type: ADME, organism-based; conditions: in vivo
[16] = Half-life in Sprague-Dawley rat at 5 mg/kg, iv by LC-MS analysis; assay type: ADME, organism-based; conditions: in vivo
[17] = Half-life in Sprague-Dawley rat at 50 mg/kg, po by LC-MS analysis; assay type: ADME, organism-based; conditions: in vivo
[18] = Toxicity in Kunming mouse assessed as effect on heart colour at 100 to 200 mg/kg, iv once daily for 5 days; assay type: organism-based; conditions: in vivo, 120 h, dose 100-200 mg/kg, time 5 day
[19] = Cmax in Sprague-Dawley rat at 5 mg/kg, iv by LC-MS analysis; assay type: ADME, organism-based; conditions: in vivo
[20] = Metabolic stability in rat liver microsomes assessed as half-life measured upto 60 mins by LC-MS/MS analysis; assay type: ADME, Microsome
[21] = Toxicity in Kunming mouse assessed as histopathological changes in kidney at 200 mg/kg, iv once daily for 5 days by H and E staining based analysis; assay type: organism-based; conditions: in vivo, 120 h, time 5 day
Hepatitis B virus = assay: Antiviral activity against Hepatitis B virus infected in human HepG2.2.15 cells assessed as inhibition of HBV DNA replication incubated for 10 day by qPCR analysis; assay type: functional, organism-based; conditions: HepG2.2.15, 240 h
[22] = Toxicity in Kunming mouse assessed as effect on heart weight at 100 to 200 mg/kg, iv once daily for 5 days; assay type: organism-based; conditions: in vivo, 120 h, dose 100-200 mg/kg, time 5 day
[23] = Toxicity in Kunming mouse assessed as histopathological changes in heart at 200 mg/kg, iv once daily for 5 days by H and E staining based analysis; assay type: organism-based; conditions: in vivo, 120 h, time 5 day
[24] = Tmax in Sprague-Dawley rat at 5 mg/kg, iv by LC-MS analysis; assay type: ADME, organism-based; conditions: in vivo
[25] = AUC (0 to infinity) in Sprague-Dawley rat at 50 mg/kg, po by LC-MS analysis; assay type: ADME, organism-based; conditions: in vivo
[26] = Toxicity in Kunming mouse assessed as effect on kidney colour at 100 to 200 mg/kg, iv once daily for 5 days; assay type: organism-based; conditions: in vivo, 120 h, dose 100-200 mg/kg, time 5 day
[27] = Toxicity in Kunming mouse assessed as effect on liver colour at 100 to 200 mg/kg, iv once daily for 5 days; assay type: organism-based; conditions: in vivo, 120 h, dose 100-200 mg/kg, time 5 day
[28] = Cytotoxicity against human HepG2.2.15 cells assessed as inhibition of cell proliferation by CCK8 assay; assay type: toxicity, cell-based, HepG2 2.2.15
[29] = Cmax in Sprague-Dawley rat at 50 mg/kg, po by LC-MS analysis; assay type: ADME, organism-based; conditions: in vivo
[30] = Toxicity in Kunming mouse assessed as effect on kidney size at 100 to 200 mg/kg, iv once daily for 5 days; assay type: organism-based; conditions: in vivo, 120 h, dose 100-200 mg/kg, time 5 day
[31] = Toxicity in Kunming mouse assessed as effect on liver size at 100 to 200 mg/kg, iv once daily for 5 days; assay type: organism-based; conditions: in vivo, 120 h, dose 100-200 mg/kg, time 5 day
[32] = Oral bioavailability in Sprague-Dawley rat at 50 mg/kg by LC-MS analysis; assay type: ADME, organism-based; conditions: in vivo
[33] = Tmax in Sprague-Dawley rat at 50 mg/kg, po by LC-MS analysis; assay type: ADME, organism-based; conditions: in vivo
[34] = Toxicity in Kunming mouse assessed as effect on kidney weight at 100 to 200 mg/kg, iv once daily for 5 days; assay type: organism-based; conditions: in vivo, 120 h, dose 100-200 mg/kg, time 5 day
[35] = Toxicity in Kunming mouse assessed as histopathological changes in liver at 200 mg/kg, iv once daily for 5 days by H and E staining based analysis; assay type: organism-based; conditions: in vivo, 120 h, time 5 day
[36] = Toxicity in Kunming mouse assessed as effect on heart size at 100 to 200 mg/kg, iv once daily for 5 days; assay type: organism-based; conditions: in vivo, 120 h, dose 100-200 mg/kg, time 5 day
[37] = Clearance in Sprague-Dawley rat at 5 mg/kg, iv by LC-MS analysis; assay type: ADME, organism-based; conditions: in vivo
[38] = AUC (0 to t) in Sprague-Dawley rat at 50 mg/kg, po by LC-MS analysis; assay type: ADME, organism-based; conditions: in vivo
[39] = AUC (0 to t) in Sprague-Dawley rat at 5 mg/kg, iv by LC-MS analysis; assay type: ADME, organism-based; conditions: in vivo

SMILES | CL/F [6] | Activity [7] | Activity (LX-2 [8]) | MTD at 120 h [9] | Activity [10] | half-life [11] | Drug uptake [12] | selectivity ratio [13] | Activity (LX-2 [14]) | AUC(0-inf) [15] | half-life [16] | half-life [17] | Activity [18] | Cmax [19] | half-life [20] | Activity [21] | EC50 (Hepatitis B virus) | Activity [22] | Activity [23] | Tmax [24] | other results
CC(=O)N[C@H]1[C@H](OCCCCC(=O)NCCCNC(=O)CCOCC(COCCC(=O)NCCCNC(=O)CCCCO[C@@H]2O[C@H](CO)[C@H](O)[C@@H](O)[C@H]2NC(C)=O)(COCCC(=O)NCCCNC(=O)CCCCO[C@@H]2O[C@H](CO)[C@H](O)[C@@H](O)[C@H]2NC(C)=O)NC(=O)CCC(=O)NCCOCCOCCOCCOCCn2cc(COP(=O)(O)COCCn3cnc4c(N)ncnc43)nn2)O[C@H](CO)[C@H](O)[C@H]1O | – | – | – | – | – | – | – | – | – | – | – | – | – | – | – | – | – | – | – | – | Drug metabolism [1]: metabolite_notdetected; Drug metabolism [2]: metabolite_detected; Drug metabolism [3]: metabolite_detected; Drug metabolism [4]: metabolite_detected; Drug metabolism [5]: metabolite_detected
CC(=O)N[C@H]1[C@H](OCCCCC(=O)NCCOCCOCCOCCOCCn2cc(COP(=O)(CO[C@H](C)Cn3cnc4c(N)ncnc43)OCOC(=O)C(C)(C)C)nn2)O[C@H](CO)[C@H](O)[C@H]1O (stereo not given in full) | 172 mL/min/kg | Non-toxic | Toxic | ~200 mg/kg | Non-toxic | 12.4 min | Not_active | > 468 | Toxic | 2130 ng·h/mL | 67.2 min | 192 min | Non-toxic | 2030 ng/mL | 2.13 min | Non-toxic | 214 nM | Non-toxic | Non-toxic | 1.98 min | AUC(0-inf) [25]: 4930 ng·h/mL; Activity [26]: Non-toxic; Activity [27]: Non-toxic; CC50 [28]: > 100000 nM; Cmax [29]: 1500 ng/mL; Activity [30]: Non-toxic; Activity [31]: Non-toxic; bioavailability [32]: 23.4%; Tmax [33]: 45 min; Activity [34]: Non-toxic; Activity [35]: Non-toxic; Activity [36]: Non-toxic; clearance [37]: 40.7 mL/min/kg; AUC(0-t) [38]: 4900 ng·h/mL; AUC(0-t) [39]: 2100 ng·h/mL
CC(=O)N[C@H]1[C@H](OCCCCC(=O)NCCOCCOCCOCCOCCn2cc(COP(=O)(COCCn3cnc4c(N)ncnc43)OCOC(=O)C(C)(C)C)nn2)O[C@H](CO)[C@H](O)[C@H]1O (stereo not given in full) | 252 mL/min/kg | Non-toxic | Toxic | ~200 mg/kg | Non-toxic | 14.9 min | Not_active | > 384 | Toxic | 2000 ng·h/mL | 46.8 min | 191 min | Non-toxic | 2010 ng/mL | 2.33 min | Non-toxic | 260 nM | Non-toxic | Non-toxic | 1.98 min | AUC(0-inf) [25]: 3310 ng·h/mL; Activity [26]: Non-toxic; Activity [27]: Non-toxic; CC50 [28]: > 100000 nM; Cmax [29]: 1290 ng/mL; Activity [30]: Non-toxic; Activity [31]: Non-toxic; bioavailability [32]: 16.6%; Tmax [33]: 40.2 min; Activity [34]: Non-toxic; Activity [35]: Non-toxic; Activity [36]: Non-toxic; clearance [37]: 42.1 mL/min/kg; AUC(0-t) [38]: 3300 ng·h/mL; AUC(0-t) [39]: 1990 ng·h/mL
